Source: ChEMBL document CHEMBL1201862, “PubChem BioAssay data set” (2004)
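Five concentrations, 48 hours, 96-well plates. GI50 marks 50% less growth.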 Active and inactive are the calls of the source. Rule as the data show it: active = GI50 up to about 1.1 µM and inactive = higher.

Assays:
Assay in all cases: NCI anticancer screen, dose series, 48 h
786-0 = test system: 786-0
A498 = test system: A498
A549 = test system: A549
ACHN = test system: ACHN
CAKI-1 = test system: CAKI-1
COLO 205 = test system: COLO 205
DU-145 = test system: DU-145
EKVX = test system: EKVX
HCC 2998 = test system: HCC 2998
HCT-116 = test system: HCT-116
HCT-15 = test system: HCT-15
HL-60 = test system: HL-60
HOP-62 = test system: HOP-62
HOP-92 = test system: HOP-92
HT-29 = test system: HT-29
Hs-578T = test system: Hs-578T
IGROV-1 = test system: IGROV-1
K562 = test system: K562
KM12 = test system: KM12
LOX IMVI = test system: LOX IMVI
M14 = test system: M14
MCF7 = test system: MCF7
MDA-MB-231 = test system: MDA-MB-231
MDA-MB-435 = test system: MDA-MB-435
MDA-N = test system: MDA-N
MOLT-4 = test system: MOLT-4
Malme-3M = test system: Malme-3M
NCI-H226 = test system: NCI-H226
NCI-H23 = test system: NCI-H23
NCI-H460 = test system: NCI-H460
NCI/ADR-RES = test system: NCI/ADR-RES
OVCAR-3 = test system: OVCAR-3
OVCAR-4 = test system: OVCAR-4
OVCAR-5 = test system: OVCAR-5
PC-3 = test system: PC-3
RPMI-8226 = test system: RPMI-8226
RXF 393 = test system: RXF 393
SF-268 = test system: SF-268
SF-295 = test system: SF-295
SF-539 = test system: SF-539
SK-MEL-28 = test system: SK-MEL-28
SK-MEL-2 = test system: SK-MEL-2
SK-MEL-5 = test system: SK-MEL-5
SK-OV-3 = test system: SK-OV-3
SN12C = test system: SN12C
SNB-19 = test system: SNB-19
SNB-75 = test system: SNB-75
SR = test system: SR
T47D = test system: T47D
TK-10 = test system: TK-10
U-251 = test system: U-251
UACC-257 = test system: UACC-257
UACC-62 = test system: UACC-62
UO-31 = test system: UO-31
CCRF-CEM = test system: CCRF-CEM
OVCAR-8 = test system: OVCAR-8
SW-620 = test system: SW-620

Measured: GI50

CSCCCS/C1=C/CCCCCCCCCC1
> 100 µM: HCT-15
inactive: 786-0 > 100 µM | A498 > 100 µM | A549 > 100 µM | ACHN > 100 µM | CAKI-1 > 100 µM | COLO 205 > 100 µM | DU-145 > 100 µM | EKVX > 100 µM | HCC 2998 > 100 µM | HCT-116 > 100 µM | HL-60 > 100 µM | HOP-62 > 100 µM | HOP-92 > 100 µM | HT-29 > 100 µM | Hs-578T > 100 µM | IGROV-1 > 100 µM | K562 > 100 µM | KM12 > 100 µM | LOX IMVI > 100 µM | M14 > 100 µM | MCF7 > 100 µM | MDA-MB-231 > 100 µM | MDA-MB-435 > 100 µM | MDA-N > 100 µM | MOLT-4 > 100 µM | Malme-3M > 100 µM | NCI-H226 > 100 µM | NCI-H23 > 100 µM | NCI-H460 > 100 µM | NCI/ADR-RES > 100 µM | OVCAR-3 > 100 µM | OVCAR-4 > 100 µM | OVCAR-5 > 100 µM | PC-3 > 100 µM | RPMI-8226 > 100 µM | RXF 393 > 100 µM | SF-268 > 100 µM | SF-295 > 100 µM | SF-539 > 100 µM | SK-MEL-28 > 100 µM | SK-MEL-2 > 100 µM | SK-MEL-5 > 100 µM | SK-OV-3 > 100 µM | SN12C > 100 µM | SNB-19 > 100 µM | SR > 100 µM | T47D > 100 µM | TK-10 > 100 µM | U-251 > 100 µM | UACC-257 > 100 µM | UACC-62 > 100 µM | UO-31 > 100 µM
active: SNB-75 0.281 µM

COc1cccc([C@@H]2CC(=O)c3cc4c(cc3N2)OCO4)c1
inactive: 786-0 > 100 µM | A498 > 100 µM | A549 > 100 µM | ACHN > 100 µM | CAKI-1 > 100 µM | CCRF-CEM > 100 µM | COLO 205 > 100 µM | DU-145 > 100 µM | EKVX > 100 µM | HCC 2998 > 100 µM | HCT-116 > 100 µM | HOP-62 > 100 µM | HOP-92 > 100 µM | Hs-578T 64.9 µM | K562 98.4 µM | KM12 > 100 µM | LOX IMVI > 100 µM | M14 > 100 µM | MCF7 > 100 µM | MDA-MB-231 > 100 µM | MDA-MB-435 71.6 µM | MDA-N > 100 µM | NCI-H226 > 100 µM | NCI/ADR-RES > 100 µM | OVCAR-3 > 100 µM | OVCAR-4 > 100 µM | OVCAR-5 > 100 µM | OVCAR-8 > 100 µM | PC-3 > 100 µM | RPMI-8226 76.4 µM | RXF 393 > 100 µM | SF-268 > 100 µM | SF-295 > 100 µM | SF-539 > 100 µM | SK-MEL-28 > 100 µM | SK-MEL-2 > 100 µM | SK-MEL-5 96.8 µM | SK-OV-3 > 100 µM | SN12C > 100 µM | SNB-19 > 100 µM | SNB-75 86.3 µM | SW-620 > 100 µM | T47D > 100 µM | TK-10 > 100 µM | U-251 > 100 µM | UACC-257 > 100 µM | UACC-62 65.3 µM | UO-31 > 100 µM
> 100 µM: HCT-15

CCCCCCCCCC/C=C/CC(=O)SCCNC(=O)CCNC(=O)[C@@H](O)C(C)(C)COP(=O)(O)OP(=O)(O)OCC1OC(n2cnc3c(N)ncnc32)C(O)C1OP(=O)(O)O (some centres not stated)
inactive: 786-0 > 10 µM | A498 > 10 µM | A549 > 10 µM | ACHN > 10 µM | CAKI-1 > 10 µM | CCRF-CEM > 10 µM | COLO 205 > 10 µM | DU-145 > 10 µM | EKVX > 10 µM | HCC 2998 > 10 µM | HCT-116 > 10 µM | HL-60 > 10 µM | HOP-62 > 10 µM | HOP-92 > 10 µM | HT-29 > 10 µM | Hs-578T > 10 µM | IGROV-1 > 10 µM | K562 > 10 µM | KM12 > 10 µM | LOX IMVI > 10 µM | M14 > 10 µM | MCF7 > 10 µM | MDA-MB-231 > 10 µM | MDA-MB-435 > 10 µM | MDA-N > 10 µM | MOLT-4 > 10 µM | Malme-3M > 10 µM | NCI-H226 > 10 µM | NCI-H23 > 10 µM | NCI-H460 > 10 µM | NCI/ADR-RES > 10 µM | OVCAR-3 > 10 µM | OVCAR-4 > 10 µM | OVCAR-5 > 10 µM | OVCAR-8 > 10 µM | PC-3 > 10 µM | RPMI-8226 > 10 µM | RXF 393 > 10 µM | SF-268 > 10 µM | SF-295 > 10 µM | SF-539 > 10 µM | SK-MEL-28 > 10 µM | SK-MEL-5 > 10 µM | SK-OV-3 > 10 µM | SN12C > 10 µM | SNB-19 > 10 µM | SNB-75 > 10 µM | SW-620 > 10 µM | T47D > 10 µM | TK-10 > 10 µM | U-251 > 10 µM | UACC-257 > 10 µM | UACC-62 > 10 µM
> 10 µM: HCT-15
